Counter-ions that a name gives are not always drawn.
Columns and labels:
contrast nephropathy = details: cited from earlier work
[1] = test system: hypovolemic dogs receiving contrast; details: cited from earlier work
[2] = Intra-renal delivery of fenoldopam, renal artery blood flow; type: in vivo, human; details: intra-renal delivery at about 0.1 and about 0.2 mcg/kg/min
Method: At the time of the procedure, a switch to local delivery can easily be made with the previously described bifurcated catheter. […] Therefore another titration (in this situation most frequently migrating upward) is performed according to further embodiments, starting at the systemic dose, and moving towards a tolerated local dose, for the duration of the intended catheterization. Post-procedure, if the specialized bifurcated catheter is preferably to be removed, then the administration could be returned to a systemic dose, with or without additional hydration concurrently.

[3] = cited from earlier work
[4] = systemic regimens; nausea and vomiting, flushing, hypotension, tachycardia, hypokalemia, ST/T-wave changes, dizziness, dyspnea; cited from earlier work
[5] = Local renal papaverine, renal blood flow in human subjects; type: in vivo; details: local renal doses of about 2 mg/min and about 3 mg/min

Oc1ccc(C2CNCCc3c2cc(O)c(O)c3Cl)cc1 (stereo not shown) [fenoldopam, fenoldopam mesylate]
efficacy in preventing contrast nephropathy, 0.2 vs 0.1 mcg/kg/min (contrast nephropathy; 0.2 mcg/kg/min compared with 0.1 mcg/kg/min): greater efficacy | benefit over saline (CONTRAST trial) (contrast nephropathy; 300 patients, 0.05-0.1 mcg/kg/min systemic IV over 12 hours): no benefit | renal function in high-risk patients undergoing contrast procedures (contrast nephropathy; small studies incl. randomized, double blind, placebo-controlled trial, 0.05-0.5 mcg/kg/min for 4-6 hours, started prior to contrast): attenuated worsening of renal function | renal blood flow and renal function (glomerular filtration rate) [1]: prevented reduction in both renal blood flow and renal function | renal artery blood flow [2]: significant and immediate increases in renal artery blood flow | increase in renal blood flow from baseline ([3]; normal volunteers, 0.1 mcg/kg/min): approximately 40% | increment in renal blood flow ([3]; patients with a mean serum creatinine of 2.6 mg/dL, 0.1 mcg/kg/min): 16% | renal vasodilation ([3]; systemic doses as low as approximately 0.01 through approximately 0.5 mcg/kg/min IV): dose-dependent renal vasodilation | frequency of common side effects other than headache [4]: ≤ 5%

COc1ccc(Cc2nccc3cc(OC)c(OC)cc23)cc1OC [papaverine]
renal blood flow rates [5]: increase renal blood flow rates

From US20070213686A1, “System and method for prevention of radiocontrast induced nephropathy” (priority 2003, published 2007)
